Measurements: ChEMBL document CHEMBL1201862, “PubChem BioAssay data set” (2004)
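Step 1: Grow cells in 96-well plates. Step 2: Expose to compound for 48 hours at 5 concentrations. Step 3: Interpolate endpoints linearly; if unreached, use highest concentration. The concentration for 50% growth inhibition is given as GI50.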 Calls of active or inactive are those of the source. No stated cut-off is given here; in the data, active = GI50 up to about 1.1 µM and inactive = higher.

Legend:
Test in all cases: growth of human tumour cells (NCI), 48 h
MDA-MB-435 = tested on: MDA-MB-435
CCRF-CEM = tested on: CCRF-CEM
PC-3 = tested on: PC-3
U-251 = tested on: U-251
LOX IMVI = tested on: LOX IMVI
HOP-62 = tested on: HOP-62
K562 = tested on: K562
MOLT-4 = tested on: MOLT-4
RXF 393 = tested on: RXF 393
786-0 = tested on: 786-0
SNB-75 = tested on: SNB-75
A549 = tested on: A549
RPMI-8226 = tested on: RPMI-8226
IGROV-1 = tested on: IGROV-1
SW-620 = tested on: SW-620
COLO 205 = tested on: COLO 205
MDA-MB-231 = tested on: MDA-MB-231
SR = tested on: SR
SF-539 = tested on: SF-539
MCF7 = tested on: MCF7
TK-10 = tested on: TK-10
MDA-N = tested on: MDA-N
NCI/ADR-RES = tested on: NCI/ADR-RES
M14 = tested on: M14
NCI-H522 = tested on: NCI-H522
HL-60 = tested on: HL-60
HCC 2998 = tested on: HCC 2998
SF-295 = tested on: SF-295
KM12 = tested on: KM12
UACC-257 = tested on: UACC-257
HCT-116 = tested on: HCT-116
SK-MEL-5 = tested on: SK-MEL-5
OVCAR-4 = tested on: OVCAR-4
HCT-15 = tested on: HCT-15
NCI-H460 = tested on: NCI-H460
SK-MEL-28 = tested on: SK-MEL-28
BT-549 = tested on: BT-549
ACHN = tested on: ACHN
SF-268 = tested on: SF-268
T47D = tested on: T47D
UACC-62 = tested on: UACC-62
NCI-H226 = tested on: NCI-H226
SK-OV-3 = tested on: SK-OV-3
NCI-H23 = tested on: NCI-H23
EKVX = tested on: EKVX
OVCAR-5 = tested on: OVCAR-5
SNB-19 = tested on: SNB-19
SK-MEL-2 = tested on: SK-MEL-2
Hs-578T = tested on: Hs-578T
Malme-3M = tested on: Malme-3M
HT-29 = tested on: HT-29
UO-31 = tested on: UO-31
HOP-92 = tested on: HOP-92
CAKI-1 = tested on: CAKI-1
DU-145 = tested on: DU-145
SN12C = tested on: SN12C
OVCAR-3 = tested on: OVCAR-3
OVCAR-8 = tested on: OVCAR-8

CN1C(=O)[C@H](c2c[nH]c3ccccc23)[C@H](c2c[nH]c3ccccc23)C1=O
GI50 (MDA-MB-435): 26.4 µM (inactive)
GI50 (CCRF-CEM): 18.6 µM (inactive)
GI50 (PC-3): 24.3 µM (inactive)
GI50 (U-251): 35.4 µM (inactive)
GI50 (LOX IMVI): 17.7 µM (inactive)
GI50 (HOP-62): 27.7 µM (inactive)
GI50 (K562): 28.9 µM (inactive)
GI50 (MOLT-4): 21.6 µM (inactive)
GI50 (RXF 393): 26.7 µM (inactive)
GI50 (786-0): > 45.2 µM (inactive)
GI50 (SNB-75): 34.7 µM (inactive)
GI50 (A549): 32.9 µM (inactive)
GI50 (RPMI-8226): 24.9 µM (inactive)
GI50 (IGROV-1): 6.97 µM (inactive)
GI50 (SW-620): 37.1 µM (inactive)
GI50 (COLO 205): 1.33 µM (inactive)
GI50 (MDA-MB-231): 4.4 µM (inactive)
GI50 (SR): 22.6 µM (inactive)
GI50 (SF-539): 21.7 µM (inactive)
GI50 (MCF7): 29.9 µM (inactive)
GI50 (TK-10): 22 µM (inactive)
GI50 (MDA-N): 38.1 µM (inactive)
GI50 (NCI/ADR-RES): 27 µM (inactive)
GI50 (M14): 38.8 µM (inactive)
GI50 (NCI-H522): 34.2 µM (inactive)
GI50 (HL-60): 5.13 µM (inactive)
GI50 (HCC 2998): > 52.5 µM (inactive)
GI50 (SF-295): 26.1 µM (inactive)
GI50 (KM12): 36.1 µM (inactive)
GI50 (UACC-257): 29.5 µM (inactive)
GI50 (HCT-116): 25.8 µM (inactive)
GI50 (SK-MEL-5): 22 µM (inactive)
GI50 (OVCAR-4): 5.32 µM (inactive)
GI50 (HCT-15): 24.8 µM
GI50 (NCI-H460): 23.9 µM (inactive)
GI50 (SK-MEL-28): 33.7 µM (inactive)
GI50 (BT-549): 19.1 µM (inactive)
GI50 (ACHN): 23.8 µM (inactive)
GI50 (SF-268): 33.3 µM (inactive)
GI50 (T47D): 87.9 µM (inactive)
GI50 (UACC-62): 22.2 µM (inactive)
GI50 (NCI-H226): 27.2 µM (inactive)
GI50 (SK-OV-3): 38.2 µM (inactive)
GI50 (NCI-H23): 22.3 µM (inactive)
GI50 (EKVX): 29.4 µM (inactive)
GI50 (OVCAR-5): > 41.6 µM (inactive)
GI50 (SNB-19): 41.4 µM (inactive)
GI50 (SK-MEL-2): 22.3 µM (inactive)
GI50 (Hs-578T): 31.3 µM (inactive)
GI50 (Malme-3M): 36.5 µM (inactive)
GI50 (HT-29): 34.7 µM (inactive)
GI50 (UO-31): 15.5 µM (inactive)
GI50 (HOP-92): > 35.9 µM (inactive)
GI50 (CAKI-1): 2.2 µM (inactive)
GI50 (DU-145): 48.3 µM (inactive)
GI50 (SN12C): 44.2 µM (inactive)
GI50 (OVCAR-3): 19.5 µM (inactive)
GI50 (OVCAR-8): 31 µM (inactive)
